Laboratory results published in patent US20110160266A1, “Novel Anti-Arrhythmia Agent” (THE UAB RESEARCH FOUNDATION, priority 2008, published 2011).
Entries after “also recorded” stand apart in the source; their conditions may differ. Marks after values point to notes of the source that are not given here.

Assays:
isolated rat left atria = assay: Pharmacological activation of spontaneous tachycardic activity (STA): calcium-loading agents with or without 2-APB; settings: for ectopic activity / mechanical stability without 2-APB / effect on left atrial force of contraction: agent without 2-APB, at the concentration given; for T0.5R (time to 50% relaxation) / T0.9R (time to 90% relaxation) / TPT (time to peak tension) / SMA Rate: concentrations per footnote; for Force Post: mg force per g atrial wet weight following a 10 min exposure to the agent; for Force Pre: mg force per g atrial wet weight prior to exposure to the agent; for SMA Rate: spontaneous atrial mechanical events
Method: Male Sprague-Dawley rats (325-400 g) were anesthetized with intra-peritoneal pentobarbital (0.1 g/kg). Their right and left atria were isolated, superfused at 30° C. in Krebs-Henseleit buffer, and nearly isometric forces of contraction were measured from these muscles (Wolkowicz et al., 2002). 2-APB was prepared as a 150 mM dimethyl sulfoxide stock.
Left atria (n=8 per group) were paced at 3 Hz and (i) titrated with 0 to 30 nM isoproterenol (Ahlquist, 1970) or (ii) exposed to 3 μM forskolin (Laurenza et al., 1980). Left atrial force and frequency of contraction, the time to peak tension and relaxation times were recorded after a 3-5 min exposure to forskolin or to any concentration of isoproterenol. The 3 Hz pacing stimulus was interrupted at the end of these protocols to measure SMA. […]
Left atrial contraction and relaxation times were recorded at these five times, the pacing stimulus was stopped and rates of SMA were recorded. […] Atrial mechanical function was measured at these four times; the pacing stimulus then was stopped and rates of SMA were recorded.
Left atria (n=6 per group) were paced at 3 Hz, titrated with 0 to 300 nM (−)BayK 8644 ([…]-1,4-Dihydro-2,6-dimethyl-5-nitro-4-[2-(trifluormethyl)phenyl]-3-pyridinecarboxylic acid methyl ester; Franckowiak et al. 1985) or FPL-64176 (2,5-Dimethyl-4-[2-(phenylmethyl)benzoyl]-1H-pyrrole-3-carboxlic acid methyl ester); Zheng et al., 1991) and their mechanical function and rates of SMA were recorded after a 5 min exposure to any concentration of slow calcium channel activator.
Atrial mechanical function was recorded at this time; the pacing stimulus then was stopped and rates of SMA were recorded. […]
Left atria (n=7) were paced at 3 Hz, treated with 120 μM ouabain (Illanes and Marshall, 1964), and any change in mechanical function was recorded at a new steady state, ˜10 min later. […]

rat right atria = assay: Right atrial spontaneous contraction frequency
Method: (§1) Left atria (n=9) were paced at 0.1 Hz, treated with 300 nM BayK 8644 for 5 min, then with 20 μM 2-APB for 10 min, and the pacing stimulus was stopped. These preparations then were incubated with six increasing concentrations of zatebradine (10-100 μM) for 3-5 min at each concentration, and rates of SMA were recorded. Untreated right atria (n=9) also were titrated with zatebradine and its effect on contraction frequency was recorded.
(§2) To test whether zatebradine affects the SMA occurring in the presence of 2-APB and isoproterenol, left atria (n=7) were paced at 0.1 Hz, treated with 30 nM isoproterenol for 5 min, then with 20 μM 2-APB for 10 min, and the pacing stimulus was stopped. Rates of SMA were recorded, these left atria were exposed to 70 μM zatebradine for 10 min, and rates of SMA were recorded again. A group of right atria (n=7) also were exposed to 30 nM isoproterenol for 5 min and then to 70 μM zatebradine for 10 min. Right atrial contraction frequency was recorded at these two times.
(§3) To test whether ZD-7288, an If inhibitor structurally unrelated to zatebradine (Baruscotti et al., 2005; Sanders et al., 2006) affects the SMA occurring in the presence of 2-APB and BayK 8644, rat left atria (n=7) were treated with 300 nM BayK 8644 for 5 min, then with 20 μM 2-APB for 10 min, and the rates of ectopic activity were recorded. These atria then were incubated with six increasing concentrations of ZD-7288 (10-100 μM) for 3-5 min at each concentration, and the rates of SMA were recorded. Right atria (n=7) were titrated similarly with ZD-7288 (0-100 μM) and the change in their contraction frequency was recorded.

rat left atria [1] = settings: 25 nM ATX II
rat left atria [2] = assay: Suppression of STA induced by 2-APB plus BayK 8644 or isoproterenol in left atria
Method: 3 Hz-paced left atria (n=9 per group) were superfused (i) in Krebs-Henseleit alone or (ii) they were treated with 20 μM 2-APB for 10 min, (iii) with 300 nM BayK 8644 for 10 min and with 20 μM 2-APB for 10 min, or (iv) they were treated with 300 nM BayK 8644 and 20 μM 2-APB for 10 min, then with 70 μM zatebradine (3-[3-[[2-(3,4-Dimethoxyphenyl)ethyl]methyl amino]propyl]-1,3,4,5-tetrahydro-7,8,-dimethoxy-2H-3-benzazepin-2-one hydrochloride) for 10 min (Baruscotti et al., 2005). Pacing was interrupted at these times and rates of SMA were recorded.
as §1
To test whether zatebradine affects left atrial force of contraction, two groups of left atria (n=9 per group) were paced at 3 Hz and treated with 300 nM BayK 8644. Five minutes later one group was incubated with six increasing concentrations of zatebradine (10-100 μM) for 3-5 min at each concentration, and forces of contraction were recorded. A second group was treated with BayK 8644 but not zatebradine, and forces of contraction were recorded at corresponding times.
as §2, §3
In these experiments, a 2-APB model system was used to simulate tachycardic abnormal automaticity. Specifically, superfused left atria were treated sequentially with 300 nM BayK 8644, an activator of voltage-dependent calcium entry, which loads myocytes with calcium, and then with 2-APB (20 μM) to activate the putative myocyte system for abnormal automaticity. […] SKF-96365 (10 μM) was added to the superfusate. SKF-96365 reversed STA in these left atria within 2-3 min and the muscle became quiescent in the absence of pacing (FIG. 34, “Rest”).
Additional experiments determined the concentration-dependence of SKF-96365 inhibition of STA. These experiments were performed as described above except that various concentrations of SKF-96365 were added to the left atrial superfusate (about 10-70 μM). Exposing left atria to various concentrations of SKF-96365 reversed STA (FIG. 35).

rat left atria [3] = assay: Reversal or prevention of 2-APB-induced SMA in superfused rat left atria; settings: for effect on 2-APB-induced sporadic ectopic activity (SMA): titration after appearance of SMA, absence of pacing
Method: (A) Titration curve of ranolazine reversal of SMA in superfused left atrial appendage. Superfused appendages (n=7) were treated with 2-APB and following the appearance of SMA they were titrated with increasing concentrations of ranolazine for 3-5 min at any concentration. Rates of SMA in the absence of pacing were recorded. (B) Typical raw mechanical data for an appendage treated with 2-APB and then with 0, 10 or 80 μM ranolazine. All data are in the absence of pacing. […]
To test whether an anion transport inhibitor affected SMA, atria (n=7) were paced at 0.1 Hz in KH and exposed to 15 μM 2-APB. Following the appearance of SMA, they were titrated with 100 to 400 μM DIDS for 3 to 5 min at each concentration. Whether SMA occurred at the end of each titration period was recorded.
In these experiments, a 2-APB model system was used to simulate abnormal automaticity. Specifically, paced (0.1 Hz) superfused left atria were treated with 2-APB (20 μM) and the pacing stimulus was stopped after the appearance of SMA. SKF-96365 (25 μM) was then added to the superfusate and the effect on SMA was measured.
Additional experiments determined the concentration-dependence of SKF-96365 inhibtion of SMA. These experiments were performed as described above except that various concentrations of SKF-96365 were added to the left atrial superfusate (about 10-65 μM).
In these experiments, a 2-APB model system was used to simulate abnormal automaticity. Specifically, superfused left atria were exposed to 0 or to 50 μM SKF-96365 for 10 min. Following this pre-incubation, muscles were titrated with increasing concentrations of 2-APB (0-30 μM) and the rate of SMA was measured about 10 min later in the absence of pacing.

Row | Compound | ectopic activity / mechanical stability without 2-APB (isolated rat left atria) | effect on left atrial force of contraction (isolated rat left atria) | T0.5R (time to 50% relaxation) (isolated rat left atria) | T0.9R (time to 90% relaxation) (isolated rat left atria) | TPT (time to peak tension) (isolated rat left atria) | Force Post (isolated rat left atria) | Force Pre (isolated rat left atria) [mg/gww] | SMA Rate (isolated rat left atria) [SMEs per minute] | other results
1 | CC(C)NCC(O)c1ccc(O)c(O)c1 (stereo not drawn) [isoproterenol] | does not produce ectopic activity | increases their force of contraction | 29.3^‡ msc | 58.7^‡ msc | 45.0^‡ msc | 104* mg/gww | 31 | 0 | rate of spontaneous tachycardic activity in the absence of pacing (isolated rat left atria; 22 μM 2-APB-treated appendage plus 30 nM isoproterenol, 30° C.): ~230 contractions/min; right atrial contraction frequency (rat right atria; 30 nM isoproterenol for 5 min): 276±11.4 contractions/min
2 | COc1ccc(CCN(C)CCCC(C#N)(c2ccc(OC)c(OC)c2)C(C)C)cc1OC (stereo not drawn) [verapamil] |  |  |  |  |  |  |  |  | triggered events after exposure to verapamil (rat left atria [1]; 10 μM verapamil for 5 min, expanded scale): continued presence of triggered events; effect on left atrial force of contraction / mechanical performance (titration) (rat left atria [1]; 1 Hz-paced, ~5 min at each concentration): markedly decreased contractile force; effect on the rate of triggered activity (titration) (rat left atria [1]; verapamil 2 to 20 μM, ~5 min at each concentration): did not affect the rate of triggered activity
3 | CCN(c1ccccc1)c1cc(NC)[n+](C)c(C)n1.[Cl-] [ZD-7288] |  |  |  |  |  |  |  |  | effect on STA initiated by BayK 8644 and 2-APB (rat left atria [2]; 300 nM BayK 8644 + 20 μM 2-APB, zatebradine 70 μM, ZD-7288 10-100 μM, SKF-96365 about 10-70 μM): decreases left atrial STA; effect on right atrial contraction frequency (rat right atria; ZD-7288 0-100 μM): decreases right atrial contraction frequency less robustly than zatebradine
4 | COc1ccccc1OCC(O)CN1CCN(CC(=O)Nc2c(C)cccc2C)CC1 (stereo not drawn) [ranolazine, N-(2,6-dimethylphenyl)-2-[4-[2-hydroxy-3-(2-methoxyphenoxy)propyl]piperazin-1-yl]acetamide] |  |  |  |  |  |  |  |  | effect on 2-APB-induced sporadic ectopic activity (SMA) (rat left atria [3]): prevent the sporadic ectopic activity; effect on 2-APB-induced sporadic ectopic activity (SMA) (rat left atria [3]; listed as Ranolazine): blocks ectopic activity; effect on tachycardic activity with high calcium loads (rat left atria [2]; data not shown): suppresses, but does not completely prevent
5 | O=S(=O)(O)c1cc(N=C=S)ccc1C=Cc1ccc(N=C=S)cc1S(=O)(=O)O [DIDS, 4,4′-diisothiocyanatostilbene-2,2′-disulfonic acid] |  |  |  |  |  |  |  |  | DIDS concentration that reversed SMA completely (rat left atria [3]; 15 μM 2-APB, 0.1 Hz, 3 to 5 min at each DIDS concentration): > 300 µM
6 | COC(=O)c1c(C)[nH]c(C)c1C(=O)c1ccccc1Cc1ccccc1 [FPL-64176, 2,5-Dimethyl-4-[2-(phenylmethyl)benzoyl]-1H-pyrrole-3-carboxlic acid methyl ester] | does not produce ectopic activity | increases their force of contraction | 35.3 msc | 73.3 msc | 52.8 msc | 68* mg/gww | 30 | 0 | 
7 | CCN(CC)CC(=O)Nc1c(C)cccc1C [lidocaine] |  |  |  |  |  |  |  |  | effect on 2-APB-induced sporadic ectopic activity (SMA) (rat left atria [3]): suppress this arrhythmic activity
8 | C=C[C@@]1(C)CC(=O)[C@]2(O)[C@@]3(C)[C@@H](O)CCC(C)(C)[C@@H]3[C@H](O)[C@H](OC(C)=O)[C@@]2(C)O1 [forskolin] |  |  | 28.7^‡ msc | 58.4^‡ msc | 44.6* msc | 62* mg/gww | 21 | 0 | 
9 | C[C@@H]1O[C@@H](O[C@H]2C[C@@H](O)[C@]3(CO)[C@H]4[C@H](O)C[C@]5(C)[C@@H](C6=CC(=O)OC6)CC[C@]5(O)[C@@H]4CC[C@]3(O)C2)[C@H](O)[C@H](O)[C@H]1O [ouabain] | does not produce ectopic activity; also recorded: does not affect their mechanical stability | increases their force of contraction; also recorded: doubles their force of contraction |  |  |  |  |  |  | 
10 | COC(=O)C1=C(C)NC(C)=C([N+](=O)[O-])[C@H]1c1ccccc1C(F)(F)F [BayK 8644, (45)-1,4-Dihydro-2,6-dimethyl-5-nitro-4-[2-(trifluormethyl)phenyl]-3-pyridinecarboxylic acid methyl ester] | does not produce ectopic activity | increases their force of contraction | 35.2 msc | 73.2 msc | 54.1 msc | 83* mg/gww | 33 | 0 | 
11 | Anemonia sulcata Toxin II [ATX II] |  |  |  |  |  |  |  |  | induction of triggered activity (contractile doublets) (rat left atria [1]; left atria paced at 1 Hz): triggered activity is induced
12 | O=C(NCC1CCCCN1)c1cc(OCC(F)(F)F)ccc1OCC(F)(F)F (stereo not drawn) [flecainide] |  |  |  |  |  |  |  |  | effect on 2-APB-induced sporadic ectopic activity (SMA) (rat left atria [3]): suppress this arrhythmic activity
13 | ryanodine | no STA occurs | Time-dependent decreases in force of contraction |  |  |  |  |  |  | 
